The numbers were not newly measured in patent US20100137292A1, “Pharmaceutical formulations of meloxicam” (SANOVEL ILAC SANAYI VE TICARET A.S., priority 2008, published 2010), which cites them from elsewhere.

With `Cc1cnc(NC(=O)C2=C(O)c3ccccc3S(=O)(=O)N2C)s1` [Meloxicam, 4-hydroxy-2-methyl-N-(5-methyl-2-thiazolyl)-2H-1,2-benzothiazine-3-carboxamide-1,1-dioxide], the Solubility in alcohol entry (alcohol) is reported as “very slightly soluble”. Further, the Solubility in water result (water) is “practically insoluble”.
